Source: the NIST ThermoML archive (doi:10.1021/je800026p)
Numbers after ± are expanded uncertainties.

Details: 101.33 kPa, Liquid; for speed of sound: Sing-around technique in a fixed-path interferometer; for mass density: Vibrating tube method

speed of sound (288.15 K)	mass density (288.15 K)	speed of sound (293.15 K)	mass density (293.15 K)	speed of sound (298.15 K)	mass density (298.15 K)	speed of sound (303.15 K)	mass density (303.15 K)	speed of sound (308.15 K)	mass density (308.15 K)	Structure (SMILES)
1289.2 ± 2.2 m/s	766.115 ± 2.1 kg/m3	1269.5 ± 2.2 m/s	762.022 ± 2.1 kg/m3	1246.7 ± 2.2 m/s	757.784 ± 2.1 kg/m3	1226.7 ± 2.2 m/s	752.284 ± 2 kg/m3	1207 ± 2.2 m/s	748.17 ± 2 kg/m3	CCCCNCCCC [dibutylamine]
1285 ± 2.2 m/s	781.336 ± 0.61 kg/m3	1266.4 ± 2.2 m/s	777.632 ± 0.61 kg/m3	1247.6 ± 2.2 m/s	773.913 ± 0.6 kg/m3	1229 ± 2.2 m/s	770.183 ± 0.6 kg/m3	1210.4 ± 2.2 m/s	766.44 ± 0.6 kg/m3	CCCCN(CCCC)CCCC [tributylamine]
1405.2 ± 2.2 m/s	936.901 ± 0.77 kg/m3	1388.1 ± 2.2 m/s	932.917 ± 0.76 kg/m3	1371.1 ± 2.2 m/s	928.926 ± 0.76 kg/m3	1354.3 ± 2.2 m/s	924.931 ± 0.75 kg/m3	1337.7 ± 2.2 m/s	920.933 ± 0.75 kg/m3	CCCCCCOCCOCCO [2-(2-hexyloxyethoxy)ethanol]
1296.1 ± 2.2 m/s	742.865 ± 0.58 kg/m3	1273.6 ± 2.2 m/s	738.096 ± 0.58 kg/m3	1250 ± 2.2 m/s	733.301 ± 0.57 kg/m3	1228.9 ± 2.2 m/s	728.477 ± 0.57 kg/m3	1205.7 ± 2.2 m/s	723.625 ± 0.56 kg/m3	CCCCN [1-butanamine]
